According to patent US8211714B2, “Characterization of molecules” (Analiza, Inc., priority 2001, dated 2012):

Assays:
bovine β-lactoglobulin = target: T1, bovine β-lactoglobulin (Bos taurus, UniProt P02754); test: Partitioning of bovine β-lactoglobulin with binding partners in aqueous two-phase systems; settings: for Partition coefficient K-value, Dex-Ficoll system: 8.88 wt.% Dextran-64, 12.86 wt.% Ficoll-400, 0.01 M sodium phosphate buffer pH 8.6; for Partition coefficient K-value, Dex-Ficoll system / Partition coefficient K-value, Dex-Ficoll-NaSCN system / Partition coefficient K-value, Dex-PEG system: protein:binding partner 1:1; for Partition coefficient K-value, Dex-Ficoll-NaSCN system: 10.98 wt.% Dextran-64, 15.95 wt.% Ficoll-400, […] NaSCN, 0.01 M sodium phosphate buffer pH 8.6; for Partition coefficient K-value, Dex-PEG system: 12.33 wt.% Dextran-64, 6.05 wt.% PEG-6000, 0.15M NaCl, 0.01 M sodium phosphate buffer pH 7.4; for Partition coefficient K-value, PEG/Phosphate system: 13.75 wt.% PEG-600, 21.00 wt.% sodium/potassium phosphate buffer pH 6.8, protein:binding partner molecular ratio 1:1; for effect of binding on the protein K-value: all the systems used
T1 sequence (P02754 17-178): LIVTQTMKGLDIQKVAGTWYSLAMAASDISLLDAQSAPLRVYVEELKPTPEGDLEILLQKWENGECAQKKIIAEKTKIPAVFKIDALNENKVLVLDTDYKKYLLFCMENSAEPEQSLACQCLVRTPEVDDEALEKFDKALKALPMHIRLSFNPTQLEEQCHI
Method: β-Lactoglobulin from bovine milk, retinol, nitrophenyl phosphate and bromoethanol were purchased from Sigma Chemical Company (St. Louis, Mo., USA) and used without further purification. A stock solution of β-lactoglobulin in water was prepared at a concentration of 10.0 mg/ml. Nitrophenyl phosphate, retinol, and bromoethanol were dissolved in the protein stock solutions in the molecular ratios as indicated in Table 1. These protein/binding partner solutions were subjected to partitioning in a series of different aqueous two-phase systems, also as indicated below.
The aqueous two-phase system contained 13.75 wt. % PEG-600 (molecular weight of about 600) and 21.00 wt. % sodium/potassium phosphate buffer (pH 6.8). Each system was prepared by mixing the appropriate amounts of stock polymer and buffer solutions dispensed by liquid handling workstation Hamilton ML-2200 into a 1.2 mL microtube. A total volume of 800 μL was dispensed to the microtube. A varied amount (40, 80, 120, 160, and 200 μL) of the β-lactoglobulin solution or that of a mixture of a given ratio and the corresponding amount (160, 120, 80, 40, and 0.0 μl) of water were added to a system. The ratio between the volumes of the two phases of each system of a final volume of 1.00 mL was as 1:1. The system was shaken vigorously and then centrifuged for 30 min. at about 4000 rpm to speed resolution of the two phases. Tubes were then taken from the centrifuge, aliquots of a given volume (100 μl for direct spectrophotometric analysis and 150 μl for fluorescence analysis) from the top and the bottom phases were withdrawn in duplicate. Each aliquot was diluted, mixed with appropriate reagents, and used for analyzed as described below.
The other aqueous two-phase system contained 8.88 wt. % Dextran-64 (molecular weight of about 64,000), 12.86 wt. % Ficoll-400 (molecular weight of about 400,000) and 0.01 M sodium phosphate buffer (pH 8.6). Each system was prepared by mixing the appropriate amounts of stock polymer and buffer solutions dispensed by liquid handling workstation Hamilton ML-2200 into a microtube of a total volume of 1.2 mL up to a total volume of a system of 820 μL. A varied amount (40, 80, 120, and 160 μl) of the β-lactoglobulin solution or that of a mixture of a given ratio and the corresponding amount (140, 100, 60, and 20 μl) of water were added to each system. The ratio between the volumes of the two phases of each system of a final volume of 1.00 mL was as 1:1. The system was shaken vigorously and centrifuged for 30 min. at about 4000 rpm to speed the resolution of the phases. Tubes were taken out of the centrifuge, and aliquots of a given volume (100 μl for direct spectrophotometric analysis and 150 μl for fluorescence analysis) from the top and the bottom phases were withdrawn in duplicate and each diluted and mixed with appropriate reagents as indicated below and used for further analysis performed as described below.
The other aqueous two-phase system contained 10.98 wt. % Dextran-64 (molecular weight of about 64,000), 15.95 wt. % Ficoll-400 (molecular weight of about 400,000), 0.24M NaSCN, and 0.01 M sodium phosphate buffer (pH 8.6). Each system was prepared by mixing the appropriate amounts of stock polymer, salt, and buffer solutions dispensed by liquid handling workstation Hamilton ML-2200 into a microtube of a total volume of 1.2 mL up to a total volume of a system of 920 μL. A varied amount (20, 40, 60, and 80 μl) of the β-lactoglobulin solution or that of a mixture of a given ratio and the corresponding amount (60, 40, 20, and 0 μl) of water were added to a system. The ratio between the volumes of the two phases of each system of a final volume of 1.00 mL was as 1:1. The system was vigorously shaken and centrifuged for 30 min. at about 4000 rpm in a centrifuge with a bucket rotor to speed the phase settling.

hen egg white lysozyme = target: T2, hen egg white lysozyme (Gallus gallus, UniProt P00698); test: Partitioning of hen egg white lysozyme and its mixtures with binding partners in aqueous two-phase systems; format: physicochemical; settings: for Partition coefficient K-value, Dex-PEG system: pH 7.4; for Partition coefficient K-value, Dex-Ficoll system / Partition coefficient K-value, Dex-Ficoll-Na2SO4 system: pH 8.6
T2 construct: Lysozyme from hen egg white; purchased Sigma Chemical Company (St. Louis, Mo., USA); host or cells: isolated from hen egg white
Method: Glucose and N-acetyl-D-glucosamine were purchased from USB Corporation (Cleveland, Ohio, USA) and used without further purification. Stock solutions of lysozyme in water were prepared at a concentration of 5.0 mg/ml. N,N′-Diacetylchitobiose and N,N′,N″-triacetylchitotriose were dissolved at a concentration of 10 mg/ml and mixed with the protein solution in ratios appropriate to provide protein:ligand molecular ratios of 1:1. Stock solutions of lysozyme and of the lysozyme mixtures with ligands were added to an aqueous two-phase system as described below.

[1] = Partitioning of human, bovine and porcine insulin in aqueous two-phase systems; format: physicochemical; settings: pH 7.4
Method: Human recombinant insulin was purchased from ICN Biomedicals Inc. (Aurora, Ohio, USA), bovine and porcine insulins were purchased from Calbiochem Corporation (San Diego, Calif., USA) and used without further purification. […] Stock solutions of all insulins in 0.009M HCl were prepared and titrated with 0.01M NaOH to pH 6.0 with the final protein concentration of ca. 1.0 mg/ml. Stock solution of human insulin, stock solution of porcine insulin, and stock solution of bovine insulin were added to an aqueous two-phase system as described below.

T2 sequence (P00698 19-147): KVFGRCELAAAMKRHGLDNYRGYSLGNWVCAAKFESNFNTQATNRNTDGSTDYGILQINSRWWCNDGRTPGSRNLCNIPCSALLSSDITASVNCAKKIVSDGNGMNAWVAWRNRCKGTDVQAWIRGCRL

Compound	Partition coefficient K-value, Dex-Ficoll system (bovine β-lactoglobulin)	Partition coefficient K-value, Dex-Ficoll-NaSCN system (bovine β-lactoglobulin)	Partition coefficient K-value, Dex-PEG system (bovine β-lactoglobulin)	Partition coefficient K-value, PEG/Phosphate system (bovine β-lactoglobulin)	Partition coefficient K-value, PEG-3350-Phosphate system (hen egg white lysozyme)	Partition coefficient K-value, Dex-PEG system (hen egg white lysozyme)	Partition coefficient K-value, Dex-Ficoll system (hen egg white lysozyme)	Partition coefficient K-value, Dex-Ficoll-Na2SO4 system (hen egg white lysozyme)	other results
O=[N+]([O-])c1ccc(OP(=O)(O)O)cc1	0.823 ± 0.018	0.420 ± 0.001	0.103 ± 0.001	1.714 ± 0.012					effect of binding on the protein K-value (bovine β-lactoglobulin): decreases
CC(=O)N[C@H]1[C@H](O[C@H]2[C@H](O)[C@@H](NC(C)=O)C(O)O[C@@H]2CO)O[C@H](CO)[C@@H](O[C@@H]2O[C@H](CO)[C@@H](O)[C@H](O)[C@H]2NC(C)=O)[C@@H]1O (stereo partly drawn) [N,N′,N″-Triacetylchitotriose]					0.461 ± 0.006	2.033 ± 0.052	0.803 ± 0.004	1.106 ± 0.007	
OCCBr	0.848 ± 0.009	0.486 ± 0.005	0.183 ± 0.001	1.904 ± 0.013					effect of binding on the protein K-value (bovine β-lactoglobulin): decreases
CC(=O)N[C@H]1C(O)O[C@H](CO)[C@@H](O)[C@@H]1O (stereo partly drawn) [N-Acetyl-D-glucosamine]					2.402 ± 0.002	2.860 ± 0.035	0.818 ± 0.003	1.214 ± 0.010	
hen egg white lysozyme: Lysozyme from hen egg white (Sigma); protein alone, row 'None' of Table 2					2.278 ± 0.006	2.728 ± 0.010	0.890 ± 0.007	1.239 ± 0.008	
Retinol acetate	0.812 ± 0.006	0.468 ± 0.002	0.196 ± 0.001	1.858 ± 0.016					effect of binding on the K-value of the protein (bovine β-lactoglobulin; Dex-Ficoll system): reduces; effect of binding on the K value of the protein (bovine β-lactoglobulin; PEG-Phosphate, Dex-PEG, and Dex-Ficoll-NaSCN systems): increases
CC(=O)N[C@H]1[C@H](O[C@H]2[C@H](O)[C@@H](NC(C)=O)C(O)O[C@@H]2CO)O[C@H](CO)[C@@H](O)[C@@H]1O (stereo partly drawn) [N,N′-Diacetylchitobiose]					1.311 ± 0.013	2.563 ± 0.032	0.826 ± 0.001	1.177 ± 0.009	
Porcine Insulin: porcine insulin (Calbiochem); differs from human insulin by Ala in position B30									Partition coefficient K-value, Dex-Ficoll-NaCl—NaPB [1]: 1.350 ± 0.015; Partition coefficient K-value, Dex-Ficoll-NaSCN—NaPB [1]: 0.911 ± 0.006; Partition coefficient K-value, Dex-PEG-NaClO4—NaPB [1]: 0.656 ± 0.020; Partition coefficient K-value, Dex-PEG-NaSCN—NaPB [1]: 1.514 ± 0.019
